Consider 12 compounds from patent US20140005103A1, “SULFONAMIDE DERIVATIVES AND METHODS OF USE THEREOF FOR IMPROVING THE PHARMACOKINETICS OF A DRUG” (Merck, Sharp & Dohme Corp., priority 2012, published 2014).

For one series, the target named is CYP3A4 (Homo sapiens, UniProt P08684). The experiment in a line: IC50 vs CYP3A by inhibition of lopinavir metabolism in human liver microsomes. The series is classed as biochemical. The note with it: pH 7.4, human liver microsomes, 1.5 μM lopinavir, 8 min at 37° C., test concentrations 0.098-100 nM, read-out: 3A4(LPV). On the procedure:
Determination of IC50 vs CYP3A by Measurement of Inhibition of Lopinavir Metabolism
This assay was performed in a standard 96-well plate design. IC50 values were calculated from the percent inhibition observed for each test compound at 6 concentrations (for example, 0.098, 0.391, 1.56, 6.25, 25 and 100 nM). The incubation substrate mix contains 1.5 μM lopinavir, 0.01 mg/mL protein human liver microsomes (BD Gentest), 1 mM NAPDH, 3.3 mM MgCl2 and 100 mM potassium phosphate buffer (pH 7.4). The production of the sum of three hydroxylated metabolites (M2: 6-hydroxy lopinavir, M3: 4-hydroxy lopinavir, M4: 4-hydroxy lopinavir (epimer of M3), Kumar et al., 1999) was determined after incubation for 8 min at 37° C. Quantitation of the metabolite peak area ratio against an internal standard (tolbutamide) was determined by LC/MS/MS analysis following acetonitrile treatment of the incubations.
Samples were analyzed in the MRM mode with a SCIEX API-4000 mass spectrometer (Applied Biosystems, Foster City, Calif.), with a Shimadzu LC-20 AD pump (Shimadzu corporation, Kyoto, JP) and a CTC PAL autosampler (Agilent Technologies, Switzerland). A Phenomenex, Luna, 5 μm, 100 A, 2.00×30 mm HPLC column was used for the separation. The mobile phases were: (A) 0.1% formic acid in water and (B) 0.1% formic acid in acetonitrile. The binary gradient was as follows.
The peak area ratio of the analyte to the internal standard was used to quantify the metabolite. The values of peak area ratios in the presence of test compound were compared to those of maximum or minimum controls and were expressed as % inhibition by interpolating between the maximum and minimum peak area ratios. Incubations with no inhibitor were defined as the maxima and with 5 μM ketoconazole were defined as the minima
The following equation was used to calculate the % inhibition:
[1−[(X−Low control)/(High control−Low control)]]*100
For the IC50 calculation, SigmaPlot was used to plot the mean % inhibition versus the test compound concentrations and for non-linear regression analysis of the data. Depending on the range of data points defining the inhibition curve, the data may have been fit to the 4-parameter logistic equation.
Background: Liver microsomes are a subcellular fraction often used to study metabolism.

A further series deals with T1, CYP2C9 (Homo sapiens, UniProt P11712).
T1 construct: 0.1 mg/mL protein human liver microsomes (BD Gentest); tissue BD Gentest; host or cells: human liver microsomes
T1 sequence (P11712 whole entry): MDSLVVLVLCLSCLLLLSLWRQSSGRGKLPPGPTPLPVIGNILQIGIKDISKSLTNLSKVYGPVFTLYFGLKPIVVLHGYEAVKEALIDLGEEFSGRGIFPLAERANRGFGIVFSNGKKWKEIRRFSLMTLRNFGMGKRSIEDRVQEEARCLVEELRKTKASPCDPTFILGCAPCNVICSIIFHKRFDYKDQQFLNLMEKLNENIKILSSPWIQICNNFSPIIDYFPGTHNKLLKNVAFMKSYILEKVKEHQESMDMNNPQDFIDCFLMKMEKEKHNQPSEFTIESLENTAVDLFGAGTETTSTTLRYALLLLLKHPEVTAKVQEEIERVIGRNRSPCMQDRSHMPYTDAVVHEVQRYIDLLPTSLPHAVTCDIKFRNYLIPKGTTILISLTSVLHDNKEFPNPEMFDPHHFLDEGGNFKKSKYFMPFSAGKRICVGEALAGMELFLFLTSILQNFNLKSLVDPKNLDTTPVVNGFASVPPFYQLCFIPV
The experiment in a line: Cocktail CYP assay, diclofenac 4'-hydroxylation. The series is classed as in vitro ADME. The conditions noted are these: human liver microsomes, 5 μM diclofenac; test concentrations up to 10 μM.

Another series deals with T2, human CYP11B1 (Homo sapiens, UniProt P15538).
T2 construct: expressed in transfected cells
T2 sequence (P15538 25-503): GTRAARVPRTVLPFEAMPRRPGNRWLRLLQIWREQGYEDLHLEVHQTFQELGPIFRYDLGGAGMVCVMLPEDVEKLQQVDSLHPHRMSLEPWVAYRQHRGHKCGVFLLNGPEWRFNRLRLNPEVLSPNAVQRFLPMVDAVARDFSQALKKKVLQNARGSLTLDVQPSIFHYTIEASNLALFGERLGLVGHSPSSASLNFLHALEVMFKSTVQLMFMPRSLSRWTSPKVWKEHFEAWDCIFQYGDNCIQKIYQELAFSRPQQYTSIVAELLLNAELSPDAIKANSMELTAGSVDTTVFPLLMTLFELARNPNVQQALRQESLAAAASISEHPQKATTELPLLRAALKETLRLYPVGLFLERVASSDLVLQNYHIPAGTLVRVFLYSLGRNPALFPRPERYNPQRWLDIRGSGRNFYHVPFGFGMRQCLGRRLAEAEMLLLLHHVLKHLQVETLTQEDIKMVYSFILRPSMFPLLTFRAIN
The experiment in a line: IC50 vs CYP11B1 by cortisol synthesis in V79 cells. The series is classed as cell-based. The conditions noted are these: V79 cells expressing human CYP11B1, 1500 nM RSS, cortisol HTRF; test concentrations 0.5-10000 nM. A digest of the protocol:
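V79 cells stably expressing human enzyme exposed to 10 compound concentrations with substrate 1500 nM RSS (CYP11B1) or 750 nM DOC (CYP11B2), ~15 h at RT in dark. Supernatant cortisol or aldosterone quantified by HTRF against standard curve; IC50 as inflection point of four-parameter fit.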

CYP3A4, sequence (P08684 2-503): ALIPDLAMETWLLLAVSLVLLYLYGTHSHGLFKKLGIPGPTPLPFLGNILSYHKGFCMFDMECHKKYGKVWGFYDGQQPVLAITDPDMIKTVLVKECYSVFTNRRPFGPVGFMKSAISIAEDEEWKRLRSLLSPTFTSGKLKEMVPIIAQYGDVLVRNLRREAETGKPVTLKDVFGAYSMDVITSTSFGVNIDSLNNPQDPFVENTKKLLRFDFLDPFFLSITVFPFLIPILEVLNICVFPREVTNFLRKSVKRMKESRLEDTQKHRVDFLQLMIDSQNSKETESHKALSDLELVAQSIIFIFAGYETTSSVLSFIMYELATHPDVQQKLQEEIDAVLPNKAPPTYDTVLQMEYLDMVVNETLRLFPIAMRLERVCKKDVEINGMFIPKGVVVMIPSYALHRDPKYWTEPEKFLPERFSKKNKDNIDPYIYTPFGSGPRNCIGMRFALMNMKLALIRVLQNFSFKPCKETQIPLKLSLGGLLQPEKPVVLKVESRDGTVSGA

For the compound `C[C@H](c1ccc(F)cc1)n1cncc1CN1CCN(S(=O)(=O)c2cnc(N3CCN(C4CCN(C)CC4)CC3)s2)CC1` [Compound 9], the IC50 at 8 min on CYP3A4 was 2.8 nM. For the same compound, the IC50 at CYP2C9 turned out to be 4120 nM; against human CYP11B1, 2040 nM.
In the case of `C[C@H](c1ccc(F)cc1)n1cncc1CN1CCN(S(=O)(=O)c2cnc(N3CCN4C[C@H](O)CC4(C)C3)s2)CC1` (stereo partly drawn) [Compound 24], the IC50 at 8 min on CYP3A4 stood at 1.9 nM. The IC50 against CYP2C9 amounted to 1350 nM; on human CYP11B1 it was 4270 nM.
On to `CN1CCN(c2ncc(S(=O)(=O)N3CCN(Cc4cncn4CCOc4ccc(F)cn4)CC3)s2)CC1` [Compound 33], for which the IC50 at 8 min at CYP3A4 is 2.3 nM. Further, the IC50 against CYP2C9 is > 10000 nM; against human CYP11B1, 4750 nM.
The like results for `C[C@H](c1ccc(F)cc1)n1cncc1CN1CCN(S(=O)(=O)c2cnc(N3CCN4C(=O)OC[C@H]4C3)s2)CC1` [Compound 26] were, in that order, 1.5 nM, 4270 nM and 3040 nM.
On to `C[C@H](c1ccc(F)cc1)n1cncc1C1C(=O)OCC2CN(S(=O)(=O)c3cnc(Nc4ccc(C(F)(F)F)cn4)s3)CCN21` (stereo partly drawn) [Compound 39], for which the IC50 at 8 min at CYP3A4 stood at 8 nM. In addition, the IC50 on CYP2C9 amounted to 4700 nM; against human CYP11B1, 2480 nM.
On the same counts, the results for `C[C@H](c1ccc(F)cc1)n1cncc1CN1CCN(S(=O)(=O)c2cnc(N3CCN4C[C@H](O)C[C@@H]4C3)s2)CC1` [Compound 6] are 1.4 nM, 1940 nM and 1560 nM.
On the same counts, the results for `C[C@H](c1ccc(F)cc1)n1cnnc1CN1CCN(S(=O)(=O)c2cnc(N3CCN4C[C@H](O)C[C@H]4C3)s2)CC1` [Compound 42] are 32 nM, > 10000 nM and 7800 nM.
Turning to `C[C@H](c1ccc(F)cc1)n1cncc1CN1CCN(S(=O)(=O)c2cnc(N3CCN4C[C@H](O)C[C@H]4C3=O)s2)CC1` [Compound 18], at CYP3A4, the IC50 at 8 min amounted to 1.1 nM. For the same compound, the IC50 on CYP2C9 amounted to 2300 nM; against human CYP11B1 it was 2590 nM.
On the same counts, the results for `CC1CN2C[C@H](O)C[C@H]2CN1c1ncc(S(=O)(=O)N2CCN(Cc3cncn3[C@H](C)c3ccc(F)cc3)CC2)s1` (single isomer, unassigned) [Compound 22] are 1.3 nM, 5700 nM and 1160 nM.
On the same counts, the results for `C[C@H](c1ccc(F)cc1)n1cncc1CN1CCN(S(=O)(=O)c2cnc(N3CCNCC3)cn2)CC1` [Compound 30] are 3.6 nM, > 10000 nM and 4510 nM.
On the same counts, the results for `C[C@H](c1ccc(F)cc1)n1cncc1CN1CCN(S(=O)(=O)c2cnc(N3CCC(S(C)(=O)=O)C3)s2)CC1` (stereo partly drawn) [Compound 8] are 1.8 nM, 3500 nM and > 10000 nM.
Turning to `C[C@H](c1ccc(F)cc1)n1cncc1CN1CCN(S(=O)(=O)c2cnc(N3CCN4C[C@@H](CN)C[C@H]4C3)s2)CC1` [Compound 10], at CYP3A4, the IC50 at 8 min is < 0.98 nM. The values for the IC50 against CYP2C9 and at human CYP11B1 were 2680 nM and 1910 nM, respectively.
